According to patent US8916712B2, “Compositions and methods for cytoprotection” (Board of Trustees of the University of Arkansas, priority 2007, dated 2014):
Where two headings read alike, the source gives them in different places. Values belong to the compound of their own block, whether it stands above or below them.

Key:
[1] = Trolox-Equivalent Antioxidant Capacity (TEAC) Assay; settings: for TEAC value, Ligand / TEAC value, Chelate: relative to Trolox standard assigned TEAC 1.00; for TEAC value, Chelate: zinc chelate of the named ligand
Description: The antioxidant capacity of the zinc chelates was measured using the 6-hydroxy-2,5,7,8-tetramethylchroman-2-carboxylic acid (Trolox)-Equivalent Antioxidant Capacity (TEAC) Assay (Randox Laboratories Ltd., Antrim, United Kingdom). […] Antioxidant capacity was measured relative to the Trolox standard, which was assigned a TEAC value of 1.00.

[2] = test system: U937 human promonocytic cells; settings: for Radioprotection / cytoprotection: 0-100 μM added immediately after irradiation, PI assay 24 hr
Description: To determine the radioprotective effects of Zn^2+-chelates, U937 human promonocytic cells (ATCC number CRL-1593.2) were irradiated with or without Zn^2+-chelates added to the cells before or after irradiation, and radiation-induced cell death was measured 24 hr later using a propidium iodide (PI) assay. Propidium iodide was added to the cells at a final concentration of 4 μM and incubated for 15 minutes. Fluorescence (which indicates dead cells) was measured at 530/645 nm, and fluorescence was measured again after cell lysis with Triton-100 (1%, v/v) for 20 minutes (to give an estimate of total cells). The background (no cells) was subtracted, and the percent of the radiation-induced cell death was computed.
Different concentrations (0-100 μM) of a compound were added to the cells, which were then irradiated with 50 Gy.
Human U937 cells were irradiated in vitro with 50 Gy and the compounds were added at different concentrations (0-100 μM) immediately after irradiation. […] Cell death was measured 24 hr after irradiation using a PI assay (as detailed above).

[3] = target: T1, rat serum DNase (predominantly rat DNase I) (Rattus norvegicus, UniProt P21704); experiment: Plasmid incision assay of endonuclease activity, rat serum DNase; format: biochemical; settings: 0, 100 or 200 μM; 1 hour at 37° C.; pBR322 plasmid DNA
T1 construct: rat serum DNase (which is predominantly rat DNase I); from tissue; host or cells: rat serum
T1 sequence (P21704 23-284): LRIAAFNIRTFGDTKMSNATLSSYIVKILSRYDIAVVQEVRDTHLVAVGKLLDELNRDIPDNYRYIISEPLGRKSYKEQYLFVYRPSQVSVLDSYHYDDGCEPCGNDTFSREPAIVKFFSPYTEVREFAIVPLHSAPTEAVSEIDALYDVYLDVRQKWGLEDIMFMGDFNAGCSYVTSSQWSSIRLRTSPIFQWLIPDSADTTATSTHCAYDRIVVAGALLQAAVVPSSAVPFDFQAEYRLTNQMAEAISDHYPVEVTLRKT
Description: (§1) Endonuclease activity was measured using a plasmid incision assay. Activity was measured in 20 μl samples containing 1 μg pBR322 plasmid DNA, 10 mM Tris-HCl, pH 7.7, 25 μg/ml bovine serum albumin V fraction, 0.5 mM dithiothreitol, 5 mM MgCl2, 2 mM CaCl2, and 2 μl endonuclease. After 1 hour incubation at 37° C., the reaction was stopped by the addition 5 μl 1% SDS, 100 mM EDTA. Digested DNA was then subjected to a 1% agarose gel electrophoresis at 7 V/cm for 1 hour at room temperature. The gel was stained in 0.5 μg/ml ethidium bromide solution for 20 minutes and photographed under […]. Scanning densitometer Fotodyne (Fotodyne Inc., Hartland, Wis.) was utilized to quantify the relative amount of endonuclease-treated plasmid DNA present in a covalently closed circular DNA (cccDNA), open circular DNA (ocDNA) or linear DNA (linDNA). One endonuclease unit was defined as the amount of enzyme required to convert 1 μg cccDNA to ocDNA and linDNA.
(§2) Recombinant DNase I and rat serum DNase (which is predominantly rat DNase I) were incubated with 0, 100, or 200 μM of a Zn^2+-chelate (i.e., Zn-3,5-diisopropylsalicylic acid (DIPS), Zn-gluconate, or Zn-glycinate), a ligand (i.e., DIPS, gluconic acid, or glycine, as negative controls), or ZnCl2 (as positive control).

[4] = target: T2, recombinant human DNase I (Homo sapiens, UniProt P24855); experiment: Plasmid incision assay of endonuclease activity, recombinant DNase I; format: biochemical; settings: 0, 100 or 200 μM; 1 hour at 37° C.; pBR322 plasmid DNA
T2 construct: Recombinant DNase I was produced using a similar approach; made in house
T2 sequence (P24855 23-282): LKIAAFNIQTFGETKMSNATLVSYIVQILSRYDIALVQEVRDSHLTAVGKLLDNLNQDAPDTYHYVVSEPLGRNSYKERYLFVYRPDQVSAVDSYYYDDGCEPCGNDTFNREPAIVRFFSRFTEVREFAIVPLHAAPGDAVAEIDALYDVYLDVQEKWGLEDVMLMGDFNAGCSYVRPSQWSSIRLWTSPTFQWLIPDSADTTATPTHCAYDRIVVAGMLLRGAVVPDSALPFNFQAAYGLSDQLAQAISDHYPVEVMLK
Description: It was hypothesized that Zn^2+-chelates of aminothiols could provide radioprotection via their direct inhibition of nucleases and their antioxidant properties (i.e., prevent nuclease induction and release). To test this hypothesis, the activity of Zn(II) chelates to inhibit nucleases was assayed in vitro. For this, DNase I and EndoG were cloned, recombinant nuclease were expressed and purified for the in vitro assay. Human and mouse mature EndoG cDNA was reverse transcribed by RT-PCR from either normal human breast epithelial HMEC cells (Clonetics, Walkersville, Md.) or immortalized mouse proximal tubule epithelial TKPTS cells (obtained from D. Elsa Bello-Reuss, University of Texas Medical Branch, Galveston). The plasmid for mature human EndoG (A49-K297) with a C-terminal histidine tag and mouse mature EndoG (A45-K294) with a C-terminal histidine tag were constructed by inserting coding cDNA into pET29b(+) (Novagen, San Diego, Calif.) and expressed in Escherichia coli BL21 (DE3) cells using standard procedures. Expression of the recombinant proteins was induced by IPTG. The expressed recombinant protein was purified by HisTrap FF crude Kit (GE Healthcare, Uppsala, Sweden) and stored in 20 mM Tris-HCl, ph 7.5, 0.5 M NaCl, 2 mM 2-mercaptoethanol, and 50% glycerol.
as §1, §2

human U937 cells = experiment: Radiation injury of U937 cells (4 Gy), chelates added before or at times after irradiation; format: cell-based; settings: added 30 minutes before, immediately after, or up to 4 hours after irradiation
Description: FRTL-5 thyroid cells (ATCC, catalog #CRL8305) were irradiated with 450 Gy without or with Zn^2+-chelates added before and/or after irradiation. […] In another experiment, Zn^2+-chelates (i.e., Zn-captopril, Zn-NAC, Zn-penicillamine, or Zn-PTCA) were added to human U937 cells either 30 minutes before, immediately after, or up to 4 hours after irradiation (4 Gy).

U937 cells [5] = experiment: Radiation-induced DNA fragmentation in U937 cells, TUNEL assay; format: cell-based, human; settings: added before 50 Gy; TUNEL 24 hr later
Description: Female CD-1 mice (n=4) were irradiated with an 8 Gy dose and apoptotic endonuclease-mediated DNA fragmentation was measured in different organs 40 hours after irradiation. For this, tissue sections were subjected to terminal deoxynucleotidyl transferase mediated dUTP nick end labeling (TUNEL) staining with the In Situ Cell Death Detection Kit from Roche Diagnostics (Indianapolis, Ind.). After washing and counterstaining with 4,6-diamidino-2-phenylindole (DAPI) sections were mounted under coverslips using the Antifade kit (Molecular Probes; Eugene, Oreg.) and analyzed under an Axioskop-2 mot plus microscope (Carl Zeiss, Gottingen Germany) with green filter set #31001, red filter set #11010v2 and blue filter set #31000 from Chroma Technology Corp. (Rockingham, Vt.). Images and acquisitions were performed using digital camera AxioCam MRm (Carl Zeiss) and software Axiovision 3.1 (Carl Zeiss).
The ability of the Zn^2+-chelates to inhibit radiation-induced DNA fragmentation was also examined. U937 cells were exposed to amifostine (as a positive control) or Zn^2+—N-acetylcysteine (Zn-NAC), irradiated as described above, and DNA fragmentation and cell death were measured 24 hr later using a TUNEL assay, essentially as described in Example 1.

U937 cells [6] = experiment: Comet assay of U937 cells irradiated with 4 Gy; format: cell-based, human; settings: 10 μM, 24 hr after irradiation
Description: Considering that the LD50/30 (i.e., the dose that […] in 50% of the animals at 30 days) for mice is approximately 8 Gy (Bichay et al., 1986, Strahlenther Onkol, 162(6):391-399), the 50 Gy dose used to irradiate the cells in the previous example was rather high. Thus, the Zn^2+-chelates were tested for radioprotection against a more physiological dose of radiation. The Zn^2+-chelates tested were Zn-NAC, Zn-captopril, Zn-2-propylthiazolidine-4-carboxylic acid (Zn-PTCA), and Zn-penacillamine. U937 cells were exposed to a Zn^2+-chelate (10 μM), irradiated with 4 Gy, and DNA fragmentation and apoptosis were measured using a single-cell gel electrophoresis assay (also known as Comet assay) 24 hr after irradiation. Alkaline or neutral Comet assays were performed using CometAssay™ kits from Trevigen (Gaithersburg, MC) according to the manufacturer's instructions. The slides were analyzed under an epifluorescense microscope using the Comet assay image analysis software (CometScore; TriTek, Sumerduck, Va.).

[7] = compound added before 50 Gy, Zn^2+-chelate 1-20 μM, PI assay 24 hr later

Compound: C[C@H](CS)C(=O)N1CCC[C@H]1C(=O)O [Captopril]
TEAC value, Ligand [1]: 0.90

Compound: NCCS [Cysteamine]
TEAC value, Ligand [1]: 0.40
Radiation-induced cell death [2, 7]: inhibition

Compound: N[C@@H](CS)C(=O)O [Cysteine]
TEAC value, Ligand [1]: 0.43
Radioprotection / cytoprotection ([2]; 50 Gy): not cytoprotective

Inhibition of serum DNase activity [3]: no effect
Inhibition of DNase I activity [4]: no effect
Compound: CC(C)c1cc(C(=O)O)c(O)c(C(C)C)c1 [DIPS, 3,5-diisopropylsalicylic acid]

Compound: CC(S)C(=O)NCC(=O)O (stereo not drawn) [MPG, N-(2-mercaptopropionyl)glycine]
TEAC value, Ligand [1]: 0.53

Compound: CC(=O)N[C@@H](CS)C(=O)O [NAC, N-Acetylcysteine]
TEAC value, Ligand [1]: 0.88
Radioprotection / cytoprotection ([2]; 50 Gy): not cytoprotective

Compound: CC(C)(S)[C@@H](N)C(=O)O [Penicillamine]
Antioxidant activity in TEAC assay [1]: strongest antioxidants
TEAC value, Ligand [1]: 1.54

Compound: [Zn+2] [Unchelated Zn^2+]
Antioxidant activity in TEAC assay [1]: no activity

Compound: CCCC1NC(C(=O)O)CS1.[Zn] (stereo not drawn) [Zn-PTCA, zinc-2-n-propylthiazolidine-4-carboxylic acid]
Protection against radiation injury (human U937 cells): protected

Compound: O=C([O-])[C@H](O)[C@@H](O)[C@H](O)[C@H](O)CO.O=C([O-])[C@H](O)[C@@H](O)[C@H](O)[C@H](O)CO.[Zn+2] [Zn-gluconate]
Inhibition of serum DNase activity [3]: inhibited
Inhibition of DNase I activity [4]: inhibited

Compound: NCC(=O)[O-].NCC(=O)[O-].[Zn+2] [Zn-glycinate]
Inhibition of serum DNase activity [3]: inhibited
Inhibition of DNase I activity [4]: inhibited

Compound: [Cl-].[Cl-].[Zn+2] [ZnCl2]
Inhibition of serum DNase activity [3]: inhibition
Radioprotection / cytoprotection ([2]; 50 Gy): did not provide any radioprotection
Cytotoxicity ([2]; U937 cells, 0-100 μM, 50 Gy): rather cytotoxic
Inhibition of DNase I activity [4]: inhibition

Compound: NCCCNCCSP(=O)(O)O [amifostine, Amifostine]
Radiation-induced cell death [2, 7]: inhibition
Radiation-induced DNA fragmentation (U937 cells [5]): inhibited
Visual comets (DNA degradation) (U937 cells [6]): absent

Compound: O=C(O)[C@H](O)[C@@H](O)[C@H](O)[C@H](O)CO [gluconic acid]
Inhibition of serum DNase activity [3]: no effect
Inhibition of DNase I activity [4]: no effect

Compound: NCC(=O)O [glycine]
Inhibition of serum DNase activity [3]: no effect
Inhibition of DNase I activity [4]: no effect

Compound: Zn^2+-Cysteamine [Zn-Cysteamine]
TEAC value, Chelate [1]: 0.87
Inhibition of cell death compared with that induced by cysteamine or amifostine ([2]; added before 50 Gy, PI assay): better
Radiation-induced cell death [2, 7]: inhibited

Compound: Zn^2+-Cysteine [Zn-Cysteine]
TEAC value, Chelate [1]: 0.65
Radiation-induced cell death [2]: inhibited
Radioprotection / cytoprotection ([2]; 50 Gy): significant cytoprotection

Compound: Zn—N-(2-mercaptopropionyl)glycine [Zn-MPG]
TEAC value, Chelate [1]: 0.97
Radiation-induced cell death [2, 7]: inhibited

Compound: zinc-captopril [Zn-Captopril]
Protection against radiation injury (human U937 cells): protected
TEAC value, Chelate [1]: 0.90

Compound: zinc-penicillamine [Zn-Penicillamine]
Protection against radiation injury (human U937 cells): protected
Antioxidant activity in TEAC assay [1]: strongest antioxidants
TEAC value, Chelate [1]: 2.05
